Measured values taken from US11571418B2, “Platinum compounds that inhibit constitutive STAT3 signaling and induce cell cycle arrest and apoptosis of malignant cells” (H. LEE MOFFITT CANCER CENTER AND RESEARCH INSTITUTE, INC., priority 2011, dated 2023).

Assays:
inactive Stat3 monomer = target: T1, inactive Stat3 monomer (Homo sapiens, UniProt P40763); test: Inactive STAT monomer added to activated Stat3 before EMSA (titration of compound); format: binding; conditions: monomer added to activated Stat3, pre-incubated with compound 30 min
T1 construct: made in house; host or cells: Sf-9 insect cells infected with recombinant baculovirus
T1 sequence (P40763 whole entry): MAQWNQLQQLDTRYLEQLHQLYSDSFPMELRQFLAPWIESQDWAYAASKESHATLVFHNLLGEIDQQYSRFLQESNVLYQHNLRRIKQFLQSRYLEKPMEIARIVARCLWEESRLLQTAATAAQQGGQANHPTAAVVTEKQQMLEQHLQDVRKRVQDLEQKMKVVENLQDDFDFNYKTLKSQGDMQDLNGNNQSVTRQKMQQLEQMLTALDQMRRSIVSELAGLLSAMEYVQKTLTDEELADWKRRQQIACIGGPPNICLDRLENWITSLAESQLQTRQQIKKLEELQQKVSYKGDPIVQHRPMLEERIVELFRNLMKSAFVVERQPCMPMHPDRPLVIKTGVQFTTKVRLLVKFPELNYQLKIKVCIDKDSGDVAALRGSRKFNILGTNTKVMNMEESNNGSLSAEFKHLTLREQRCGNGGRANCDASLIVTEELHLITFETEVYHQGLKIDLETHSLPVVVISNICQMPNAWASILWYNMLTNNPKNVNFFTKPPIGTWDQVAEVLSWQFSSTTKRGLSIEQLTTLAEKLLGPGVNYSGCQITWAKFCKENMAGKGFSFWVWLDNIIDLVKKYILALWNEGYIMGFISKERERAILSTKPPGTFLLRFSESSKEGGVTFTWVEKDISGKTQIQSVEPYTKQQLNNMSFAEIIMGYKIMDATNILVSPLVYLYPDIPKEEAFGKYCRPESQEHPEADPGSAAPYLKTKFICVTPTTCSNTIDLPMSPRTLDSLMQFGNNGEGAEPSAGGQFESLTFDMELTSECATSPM
Description: The interaction of PLATINUM-401 with Stat3 protein is independent of the activation status of the protein.

[1] = tested on: malignant cells harboring constitutively-active Stat3; test: Constitutive Stat3 activation in treated malignant cells (EMSA of nuclear extracts); format: cell-based; conditions: 24 h treatment
Description: FIGS. 5A and 5B. Evaluation for effects of PLATINUM-401 on cellular constitutive Stat3 activation and cell proliferation. Normal or malignant cells were treated with or without PLATINUM-401 and nuclear extracts were prepared for Stat3 DNA-binding activity assay with hSIE probe, or cells were processed for nuclear Ki67 immunohistochemistry. (FIG. 5A) EMSA analysis of Stat3 DNA-binding activity; (FIG. 5B) Graphical representations of quantified nuclear staining of Ki-67 proliferation index. Stat3:Stat3-DNA complexes in gels are labeled. The Ki-67 proliferation indexes were calculated as the percent positive tumor cells relative to the total number of cells. Ki67 values are representative of 3 independent assays.
Nuclear extract preparation and gel shift assays—Nuclear extract preparation from NIH3T3 stimulated by rhIL-6, NIH3T3/hEGFR stimulated by rhEGF, v-Src-transformed fibroblasts (NIH3T3/v-Src) or tumor cell lines and electrophoretic mobility shift assay were carried out as previously described (Turkson et al., 1998; Garcia et al., 1997; Yu et al., 1995). […]
The inventors further examined the biological effects of PLATINUM-401 and determined whether any changes might correlate with the inhibition of constitutively-active Stat3. […]

[2] = tested on: Stat3 tyrosine phosphorylation; test: Stat3 tyrosine phosphorylation, Western blot; format: cell-based; conditions: mouse fibroblasts, time- and dose-dependent
Description: FIGS. 3A-3D. Inhibition of Stat3-mediated gene expression by PLATINUM-401. (FIG. 3A) and (FIG. 3B) v-Src-transformed mouse fibroblasts that stably express Stat3-dependent (NIH3T3/v-Src/pLucTKS3) and Stat3-independent (NIH3T3/v-Src/pRLSRE) luciferase reporters or β-galactosidase (β-gal), as well as normal mouse fibroblast (NIH3T3) transiently transfected with pLucTKS3, pGL2-VEGF-Luc, NFkB-Luc or pLucSRE together with or without v-Src were treated with or without PLATINUM-401 for 48 h. Cytosolic extracts were then prepared from cells for luciferase and […] activities measurements. Values are the means and S.D. of three to five independent assays; (FIG. 3C) and (FIG. 3D) Nuclear extracts or whole cell lysates were prepared from IL-6-stimulated normal mouse fibroblasts (NIH3T3) or their v-Src-transformed counterpart (NIH3T3/v-Src) that are treated with or without PLATINUM-401 for different times. Samples of equal total proteins were then subjected to in vitro DNA-binding activity and EMSA analysis or for SDS-PAGE and Western blot analysis for phosphorylated and total Stat3.
Western blot—Whole-cell lysates were prepared in boiling sodium dodecyl sulfate (SDS) sample-loading buffer to extract total proteins from the cytoplasm and nucleus. […]
To further investigate the activities of PLATINUM-401, the inventors treated malignant cells and measured effects on Stat3 signaling. […]

With `CC(O)CN1CCN(CC(C)O)CC1` (stereo not drawn) [PLATINUM-401] the “interaction with inactive Stat3 monomer” value (inactive Stat3 monomer) was “interacts”, the “constitutive activation of Stat3” value [1] was “significant inhibition” and the Stat3 tyrosine phosphorylation [2] was “inhibits”.
